Laboratory results taken from ChEMBL document CHEMBL1201862, “PubChem BioAssay data set” (2004).
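Each compound was tested at five concentrations against cells in 96-well plates for 48 hours. GI50 = concentration required for 50% inhibition of growth.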 The source made the active and inactive calls. No stated cut-off is given here; in the data, active = GI50 up to about 1.1 µM and inactive = higher.

How the values were obtained:
Assay in all cases: inhibition of tumour cell growth, NCI panel, 48 h
KM12 = test system: KM12
CCRF-CEM = test system: CCRF-CEM
SR = test system: SR
MDA-MB-231 = test system: MDA-MB-231
LOX IMVI = test system: LOX IMVI
SK-MEL-5 = test system: SK-MEL-5
RPMI-8226 = test system: RPMI-8226
OVCAR-8 = test system: OVCAR-8
HOP-62 = test system: HOP-62
K562 = test system: K562
SF-268 = test system: SF-268
SW-620 = test system: SW-620
MOLT-4 = test system: MOLT-4
PC-3 = test system: PC-3
U-251 = test system: U-251
SNB-19 = test system: SNB-19
NCI-H460 = test system: NCI-H460
HCT-116 = test system: HCT-116
A498 = test system: A498

Structure (SMILES)	GI50 (KM12)	GI50 (CCRF-CEM)	GI50 (SR)	GI50 (MDA-MB-231)	GI50 (LOX IMVI)	GI50 (SK-MEL-5)	GI50 (RPMI-8226)	GI50 (OVCAR-8)	GI50 (HOP-62)	GI50 (K562)	GI50 (SF-268)	GI50 (SW-620)	GI50 (MOLT-4)	GI50 (PC-3)	GI50 (U-251)	GI50 (SNB-19)	GI50 (NCI-H460)	GI50 (HCT-116)	GI50 (A498)
CCN(CC)CCN1CCN=C2c3cc(OC)ccc3Nc3c([N+](=O)[O-])ccc1c32	1.15 µM (inactive)	0.388 µM (active)	0.221 µM (active)	0.671 µM (active)	1.41 µM (inactive)	1.55 µM (inactive)	0.64 µM (active)	0.441 µM (active)	0.56 µM (active)	0.575 µM (active)	0.501 µM (active)	0.449 µM (active)	0.288 µM (active)	0.697 µM (active)					
COc1cc(NCc2ccc3nc(-c4ccccc4)c(N)nc3c2)cc(OC)c1OC	26.5 µM (inactive)	31.6 µM (inactive)	37.8 µM (inactive)	36 µM (inactive)	41.9 µM (inactive)	15.3 µM (inactive)		27.7 µM (inactive)	43.8 µM (inactive)	41 µM (inactive)	34.8 µM (inactive)	48.5 µM (inactive)	23.3 µM (inactive)	28.2 µM (inactive)	39.3 µM (inactive)	46.2 µM (inactive)	31.4 µM (inactive)	18.1 µM (inactive)	23.3 µM (inactive)
CCOC1CCN(C(=O)c2ccccc2)O1 (centres undefined)		> 10 µM (inactive)	> 10 µM (inactive)	> 10 µM (inactive)	> 10 µM (inactive)	> 10 µM (inactive)	> 10 µM (inactive)	> 10 µM (inactive)	> 10 µM (inactive)	> 10 µM (inactive)	> 10 µM (inactive)	> 10 µM (inactive)	> 10 µM (inactive)	> 10 µM (inactive)		> 10 µM (inactive)	> 10 µM (inactive)	> 10 µM (inactive)	
COC(=O)C1=C(C(=O)OC)SC(=C2SC3=C(SC(=C4SCCS4)S3)S2)S1	> 100 µM (inactive)	> 100 µM (inactive)	> 100 µM (inactive)	> 100 µM (inactive)	> 100 µM (inactive)	> 100 µM (inactive)	> 100 µM (inactive)	> 100 µM (inactive)	> 100 µM (inactive)	> 100 µM (inactive)	> 100 µM (inactive)	> 100 µM (inactive)	> 100 µM (inactive)	> 100 µM (inactive)	93.1 µM (inactive)	> 100 µM (inactive)		> 100 µM (inactive)	> 100 µM (inactive)
CN(CCO)CC(=O)CC(O)(C(F)(F)F)C(F)(F)F	39.8 µM (inactive)	32.1 µM (inactive)	40.8 µM (inactive)	29.7 µM (inactive)	31.4 µM (inactive)	16.3 µM (inactive)	32.1 µM (inactive)	41.3 µM (inactive)		42.4 µM (inactive)		34.9 µM (inactive)	52.6 µM (inactive)	26.2 µM (inactive)	28.6 µM (inactive)	41.4 µM (inactive)	27.5 µM (inactive)	30.8 µM (inactive)	44.6 µM (inactive)
Cn1nc2ccc(Nc3cc(=O)[nH]c4ccc5nn(C)nc5c34)cc2n1	> 100 µM (inactive)	> 100 µM (inactive)	53.2 µM (inactive)	> 100 µM (inactive)		> 100 µM (inactive)		> 100 µM (inactive)	> 100 µM (inactive)	50 µM (inactive)	> 100 µM (inactive)	> 100 µM (inactive)	82.2 µM (inactive)	> 100 µM (inactive)	> 100 µM (inactive)	> 100 µM (inactive)	> 100 µM (inactive)	> 100 µM (inactive)	> 100 µM (inactive)
O=C1c2ccccc2NC(c2cc(Cl)cc(Cl)c2O)N1CCc1ccccn1 (centres undefined)	64 µM (inactive)		47.5 µM (inactive)	> 100 µM (inactive)	> 100 µM (inactive)	> 100 µM (inactive)	34.8 µM (inactive)	80.2 µM (inactive)	> 100 µM (inactive)	> 100 µM (inactive)	> 100 µM (inactive)	76.7 µM (inactive)		24 µM (inactive)	39.8 µM (inactive)	88.9 µM (inactive)	56.2 µM (inactive)	67 µM (inactive)	> 100 µM (inactive)
O=S(=O)(O)c1cc(/N=N/c2c(O)ccc3ccccc23)c2c(S(=O)(=O)O)cccc2c1	> 100 µM (inactive)	> 100 µM (inactive)	> 100 µM (inactive)	> 100 µM (inactive)		> 100 µM (inactive)	> 100 µM (inactive)	> 100 µM (inactive)	> 100 µM (inactive)	> 100 µM (inactive)	> 100 µM (inactive)	> 100 µM (inactive)	> 100 µM (inactive)	> 100 µM (inactive)	> 100 µM (inactive)	> 100 µM (inactive)	> 100 µM (inactive)	> 100 µM (inactive)	
